Measured values from patent US20250136722A1, “CYTOTOXICITY TARGETING CHIMERAS” (GLAXOSMITHKLINE INTELLECTUAL PROPERTY DEVELOPMENT LIMITED, priority 2021, published 2025).
“And” between values parts separate entries of the source, which are not always exact repeats. Equal values may be shown once.

Columns and labels:
[1] = molecular target: T1, CHOK1 cells engineered to overexpress human CCR2 (Homo sapiens, UniProt P41597); assay: Antibody dependent cellular cytotoxicity (ADCC) reporter assay (Example 199); assay type: cell-based; details: with anti-cotinine antibody SEQ ID NO: 11/12; CHOK1-human CCR2 target cells, Jurkat FcγRIIIa NFAT-luciferase reporter cells; 12-18 hours; read-out: ADCC Reporter Assay pEC50 (converted)
T1 construct: expressed in transfected cells; host or cells: CHOK1 cells
In short: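 CHOK1-hCCR2 target cells are co-incubated for 12–18 h with Jurkat FcγRIIIa/NFAT-luciferase reporter cells, ARM compound (1 pM–10 μM) and anti-cotinine antibody with a DE-mutant human IgG1 Fc (0.01–200 μg/mL). Luminescence is expressed as signal:background against no-compound wells; EC50 comes from nonlinear fit and is reported as pEC50, averaged across runs.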

[2] = molecular target: Anti-cotinine antibody (SEQ ID NO: 11 / SEQ ID NO: 12, rabbit variable region with human IgG1 Fc domain); assay: Binding of anti-cotinine antibody to ARM compounds by SPR, Biacore T200, 37° C. (Example 202); details: pH 7.4, rabbit variable region/human IgG1 Fc antibody captured on protein A
In short: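 Antibody captured on protein A chip. Compounds injected (3-fold, 5-point, top 200 nM) at 100 μL/min with 200 s association and 2000 s dissociation, at 37° C. in HEPES pH 7.4 buffer with 1% DMSO. Double-referenced data fit to 1:1 kinetics. Kd = koff/kon, reported as pKd, averaged over runs.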

Structure (SMILES)	pKd of Antibody for ARM Compound of Formula (I) [2]	EC50 [1]
CC(C)N(C)[C@@H]1CC[C@H](N2CC[C@H](Nc3ncnc4ccc(C(F)(F)F)cc34)C2=O)[C@H](NC(=O)COCCNC(=O)COCCNC(=O)CCOCCNC(=O)[C@H]2CC(=O)N(C)[C@@H]2c2cccnc2)C1 [Example 151, (2S,3S)-N-(1-(((1R,2S,5R)-5-(Isopropyl(methyl)amino)-2-((S)-2-oxo-3-((6-(trifluoromethyl)quinazolin-4-yl)amino)pyrrolidin-1-yl)cyclohexyl)amino)-1,7,13-trioxo-3,9,16-trioxa-6,12-diazaoctadecan-18-yl)-1-methyl-5-oxo-2-(pyridin-3-yl)pyrrolidine-3-carboxamide]	9.0755	3.03 nM
CC(C)N(C)[C@@H]1CC[C@H](N2CC[C@H](Nc3ncnc4ccc(C(F)(F)F)cc34)C2=O)[C@H](NC(=O)C2CCN(C3CCN(C(=O)CCCCCCCCCNC(=O)[C@@H]4CC(=O)N(C)[C@H]4c4cccnc4)CC3)CC2)C1 [Example 157]	10.135	0.2 nM
CC(C)N(C)[C@@H]1CC[C@H](N2CC[C@H](Nc3ncnc4ccc(C(F)(F)F)cc34)C2=O)[C@H](NC(=O)CCOCCNC(=O)COCCNC(=O)CCOCCNC(=O)[C@H]2CC(=O)N(C)[C@@H]2c2cccnc2)C1 [Example 163, (2S,3S)-N-(19-(((1R,2S,5R)-5-(Isopropyl(methyl)amino)-2-((S)-2-oxo-3-((6-(trifluoromethyl)quinazolin-4-yl)amino)pyrrolidin-1-yl)cyclohexyl)amino)-6,12,19-trioxo-3,10,16-trioxa-7,13-diazanonadecyl)-1-methyl-5-oxo-2-(pyridin-3-yl)pyrrolidine-3-carboxamide]	9.07	0.631 nM
CC(C)N(C)[C@@H]1CC[C@H](N2CC[C@H](Nc3ncnc4ccc(C(F)(F)F)cc34)C2=O)[C@H](NC(=O)CCCNc2c(NCCOCCOCCOCCOCCNC(=O)[C@H]3CC(=O)N(C)[C@@H]3c3cccnc3)c(=O)c2=O)C1 [Example 164, (2S,3S)-N-(14-((2-((4-(((1R,2S,5R)-5-(Isopropyl(methyl)amino)-2-((S)-2-oxo-3-((6-(trifluoromethyl)quinazolin-4-yl)amino)pyrrolidin-1-yl)cyclohexyl)amino)-4-oxobutyl)amino)-3,4-dioxocyclobut-1-en-1-yl)amino)-3,6,9,12-tetraoxatetradecyl)-1-methyl-5-oxo-2-(pyridin-3-yl)pyrrolidine-3-carboxamide]	9.3225	1.35 nM
CC(C)N(C)[C@@H]1CC[C@H](N2CC[C@H](Nc3ncnc4ccc(C(F)(F)F)cc34)C2=O)[C@H](NC(=O)CCOCCOCCOCCNc2c(NCCNC(=O)[C@H]3CC(=O)N(C)[C@@H]3c3cccnc3)c(=O)c2=O)C1 [Example 168, (2S,3S)-N-(2-((2-((2-(2-(2-(3-(((1R,2S,5R)-5-(Isopropyl(methyl)amino)-2-((S)-2-oxo-3-((6-(trifluoromethyl)quinazolin-4-yl)amino)pyrrolidin-1-yl)cyclohexyl)amino)-3-oxopropoxy)ethoxy)ethoxy)ethyl)amino)-3,4-dioxocyclobut-1-en-1-yl)amino)ethyl)-1-methyl-5-oxo-2-(pyridin-3-yl)pyrrolidine-3-carboxamide]	9.06	0.793 nM
CC(C)N(C)[C@@H]1CC[C@H](N2CC[C@H](Nc3ncnc4ccc(C(F)(F)F)cc34)C2=O)[C@H](NC(=O)[C@H]2CC[C@@H](NC(=O)COCCOCCNC(=O)CNC(=O)[C@H]3CC(=O)N(C)[C@@H]3c3cccnc3)CC2)C1 [Example 171, (2S,3S)-N-(2-((2-(2-(2-(((1S,4s)-4-(((1R,2S,5R)-5-(Isopropyl(methyl)amino)-2-((S)-2-oxo-3-((6-(trifluoromethyl)quinazolin-4-yl)amino)pyrrolidin-1-yl)cyclohexyl)carbamoyl)cyclohexyl)amino)-2-oxoethoxy)ethoxy)ethyl)amino)-2-oxoethyl)-1-methyl-5-oxo-2-(pyridin-3-yl)pyrrolidine-3-carboxamide]	8.7865	0.802 nM
CC(C)N(C)[C@@H]1CC[C@H](N2CC[C@H](Nc3ncnc4ccc(C(F)(F)F)cc34)C2=O)[C@H](NC(=O)CCCC(=O)NCCCOCCCNC(=O)CCCNC(=O)[C@H]2CC(=O)N(C)[C@@H]2c2cccnc2)C1 [Example 173, N^1-((1R,2S,5R)-5-(Isopropyl(methyl)amino)-2-((S)-2-oxo-3-((6-(trifluoromethyl)quinazolin-4-yl)amino)pyrrolidin-1-yl)cyclohexyl)-N5-(3-(3-(4-((2S,3S)-1-methyl-5-oxo-2-(pyridin-3-yl)pyrrolidine-3-carboxamido)butanamido)propoxy)propyl)glutaramide]	9.1415	0.794 nM
CC(C)N(C)[C@@H]1CC[C@H](N2CC[C@H](Nc3ncnc4ccc(C(F)(F)F)cc34)C2=O)[C@H](NC(=O)[C@H]2CC[C@@H](NC(=O)CCOCCNC(=O)COCCCNC(=O)[C@H]3CC(=O)N(C)[C@@H]3c3cccnc3)CC2)C1 [Example 175, (2S,3S)-N-(3-(2-((2-(3-(((1 S,4s)-4-(((1R,2S,5R)-5-(Isopropyl(methyl)amino)-2-((S)-2-oxo-3-((6-(trifluoromethyl)quinazolin-4-yl)amino)pyrrolidin-1-yl)cyclohexyl)carbamoyl)cyclohexyl)amino)-3-oxopropoxy)ethyl)amino)-2-oxoethoxy)propyl)-1-methyl-5-oxo-2-(pyridin-3-yl)pyrrolidine-3-carboxamide]	9.244	0.794 nM and 0.398 nM

The next lines start with results.

pKd of Antibody for ARM Compound of Formula (I) [2]	Structure (SMILES)	EC50 [1]
9.24	CC(C)N(C)[C@@H]1CC[C@H](N2CC[C@H](Nc3ncnc4ccc(C(F)(F)F)cc34)C2=O)[C@H](NC(=O)CCCC(=O)N[C@H]2CC[C@@H](CNC(=O)CCOCCNC(=O)[C@H]3CC(=O)N(C)[C@@H]3c3cccnc3)CC2)C1 [Example 179, N^1-((1R,2S,5R)-5-(isopropyl(methyl)amino)-2-((S)-2-oxo-3-((6-(trifluoromethyl)quinazolin-4-yl)amino)pyrrolidin-1-yl)cyclohexyl)-N^5-((1R,4S)-4-((3-(2-((2S,3S)-1-methyl-5-oxo-2-(pyridin-3-yl)pyrrolidine-3-carboxamido)ethoxy)propanamido)methyl)cyclohexyl)glutaramide]	0.724 nM
9.1645	CC(C)N(C)[C@@H]1CC[C@H](N2CC[C@H](Nc3ncnc4ccc(C(F)(F)F)cc34)C2=O)[C@H](NC(=O)COCCNC(=O)CCNC(=O)CCOCCOCCNC(=O)[C@H]2CC(=O)N(C)[C@@H]2c2cccnc2)C1 [Example 181, (2S,3S)-N-(1-(((1R,2S,5R)-5-(Isopropyl(methyl)amino)-2-((S)-2-oxo-3-((6-(trifluoromethyl)quinazolin-4-yl)amino)pyrrolidin-1-yl)cyclohexyl)amino)-1,7,11-trioxo-3,14,17-trioxa-6,10-diazanonadecan-19-yl)-1-methyl-5-oxo-2-(pyridin-3-yl)pyrrolidine-3-carboxamide]	0.675 nM
9.3835	CC(C)N(C)[C@@H]1CC[C@H](N2CC[C@H](Nc3ncnc4ccc(C(F)(F)F)cc34)C2=O)[C@H](NC(=O)[C@H]2CC[C@@H](NC(=O)CCOCCNC(=O)CCCCNC(=O)[C@H]3CC(=O)N(C)[C@@H]3c3cccnc3)CC2)C1 [Example 198, (2S,3S)-N-(5-((2-(3-(((1S,4s)-4-(((1R,2S,5R)-5-(Isopropyl(methyl)amino)-2-((S)-2-oxo-3-((6-(trifluoromethyl)quinazolin-4-yl)amino)pyrrolidin-1-yl)cyclohexyl)carbamoyl)cyclohexyl)amino)-3-oxopropoxy)ethyl)amino)-5-oxopentyl)-1-methyl-5-oxo-2-(pyridin-3-yl)pyrrolidine-3-carboxamide]	0.398 nM and 0.316 nM
9.111	CC(C)N(C)[C@@H]1CC[C@H](N2CC[C@H](Nc3ncnc4ccc(C(F)(F)F)cc34)C2=O)[C@H](NC(=O)[C@H]2CC[C@@H](NC(=O)COCCNC(=O)CCOCCNC(=O)[C@H]3CC(=O)N(C)[C@@H]3c3cccnc3)CC2)C1 [compound 152]	1.4 nM
9.0085	CC(C)N(C)[C@@H]1CC[C@H](N2CC[C@H](Nc3ncnc4ccc(C(F)(F)F)cc34)C2=O)[C@H](NC(=O)CCOCCOCCOCCNc2c(NCCCNC(=O)[C@H]3CC(=O)N(C)[C@@H]3c3cccnc3)c(=O)c2=O)C1 [compound 169]	1.05 nM
9.249	CC(C)N(C)[C@@H]1CC[C@H](N2CC[C@H](Nc3ncnc4ccc(C(F)(F)F)cc34)C2=O)[C@H](NC(=O)CCCC(=O)N[C@H]2CC[C@H](CNC(=O)CCOCCNC(=O)[C@H]3CC(=O)N(C)[C@@H]3c3cccnc3)CC2)C1 [compound 180]	0.456 nM
